Laboratory results taken from BindingDB's records for patent US20230339882 (Betta Pharmaceuticals, 2023).

Target: T1, Tyrosine-protein phosphatase non-receptor type 11 (Homo sapiens, UniProt Q06124)
T1 sequence (Q06124 whole entry): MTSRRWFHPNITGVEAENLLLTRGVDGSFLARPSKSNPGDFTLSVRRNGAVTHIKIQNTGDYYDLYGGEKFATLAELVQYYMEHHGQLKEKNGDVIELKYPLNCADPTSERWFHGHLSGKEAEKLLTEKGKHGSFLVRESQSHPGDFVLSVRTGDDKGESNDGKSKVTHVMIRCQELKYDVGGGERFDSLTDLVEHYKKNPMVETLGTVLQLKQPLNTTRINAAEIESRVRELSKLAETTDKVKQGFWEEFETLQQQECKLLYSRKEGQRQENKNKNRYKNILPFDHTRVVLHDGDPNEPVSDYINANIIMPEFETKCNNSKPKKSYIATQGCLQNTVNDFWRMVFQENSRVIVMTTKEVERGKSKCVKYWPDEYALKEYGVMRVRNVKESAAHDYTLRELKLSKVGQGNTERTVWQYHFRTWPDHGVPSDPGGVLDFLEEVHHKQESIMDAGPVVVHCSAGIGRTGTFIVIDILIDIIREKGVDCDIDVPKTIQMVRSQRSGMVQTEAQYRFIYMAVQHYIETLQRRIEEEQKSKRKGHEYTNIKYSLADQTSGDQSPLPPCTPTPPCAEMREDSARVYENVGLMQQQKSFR
Assay: SHP2 Allosteric Inhibitory Enzyme Activity Assay
Excerpt: SHP2 is allosterically activated by binding of a bis-tyrosyl-phosphorylated peptide to its Src homology 2 (SH2) domain. This later activation step results in the release of the autoinhibitory interface of SHP2, which in turn activates the SHP2 protein tyrosine phosphatase (PTP) and is available for substrate recognition and reaction catalysis. The catalytic activity of SHP2 was monitored using the surrogate DiFMUP in a rapid fluorescence assay format.[0511]experiment procedure:(1) Compound preparation:The compounds of the present invention (10 mM stock solution) were diluted to appropriate times with 100% DMSO, and the final test concentrations of the compounds of the present invention were 10 µM, 3.3333 µM, 1.1111 µM, 0.3704 µM, 0.1235 µM, 0.0412 µM, 0.0137 µM, 0.0046 µM, 0.0015 µM, 0.00 µM;(2) Prepare the enzyme reaction working solution:Perform SHP2 enzymatic assays in 96-well black polystyrene plates (flat bottom, low flange, non-binding surface) (Perki Elmer, Cat#6005270) at room temperature using a final reaction volume of 50 µL and the following assay buffer conditions: 60 mM HEPES, 75 mM NaCl, 75 mM KCl, 0.05% BRIJ-35, 1 mM EDTA, 5 mM DTT.(3) Enzyme-catalyzed reaction and data monitoring:Add the compound of the present invention to the corresponding 96-well plate, and set the blank test well without compound and enzyme only with buffer. Thaw SHP2 Activating Peptide (IRS1_pY1172(dPEG8)pY1222) on ice, add 25 µM to each well, then add 0.2 ng of SHP2 protein sample to the corresponding well plate and incubate at room temperature for 1 hour. The surrogate substrate DiFMUP (Invitrogen, Cat #D6567) was added to the reaction and allowed to react for 1 hour at room temperature. Fluorescence signals were monitored using a microplate reader (Envision, Perki Elmer) using excitation and emission wavelengths of 340 nm and […], respectively.(4) Data analysis:Calculation Formula:Suppression rate %=1-Conversion_sample-Conversion_min/Conversion_max-Conversion_min×100%

SMILES | IC50
N[C@@H]1c2ccccc2CC12CCN(c1ncc(C#CCOc3ccc4c(c3)NC(=O)C4)nc1CO)CC2 [US20230339882, Example A25] | 1.7 nM
CNC(=O)c1cccc(OCC#Cc2cnc(N3CCC4(CC3)Cc3ccccc3[C@H]4N)c(CO)n2)c1 [US20230339882, Example A35] | 2.2 nM
N#Cc1ccc(OCC#Cc2cnc(N3CCC4(CC3)Cc3ccccc3[C@H]4N)c(CO)n2)cc1 [US20230339882, Example A12] | 1 nM
CNC(=O)c1ccc(OCC#Cc2cnc(N3CCC4(CC3)Cc3ccccc3[C@H]4N)c(CO)n2)cc1 [US20230339882, Example A72] | 2.6 nM
N[C@@H]1c2ccccc2CC12CCN(c1ncc(C#CCOc3cccc(OC(F)(F)F)c3)nc1CO)CC2 [US20230339882, Example A15] | 11 nM
N[C@@H]1c2ccccc2CC12CCN(c1ncc(C#CCOc3ccc(C(F)(F)F)nc3)nc1CO)CC2 [US20230339882, Example A63] | 2.6 nM
N[C@@H]1c2ccccc2CC12CCN(c1ncc(C#CCOc3ccc4[nH]ncc4c3)nc1CO)CC2 [US20230339882, Example A67] | 3.1 nM
N[C@@H]1c2ccccc2CC12CCN(c1ncc(C#CCOc3cccc(Cl)c3F)nc1CO)CC2 [US20230339882, Example A05] | 4.9 nM
CC(=O)Nc1cccc(OCC#Cc2cnc(N3CCC4(CC3)Cc3ccccc3[C@H]4N)n(C)c2=O)c1 [US20230339882, Example A34] | 5.3 nM
CC(=O)c1cccc(OCC#Cc2cnc(N3CCC4(CC3)Cc3ccccc3[C@H]4N)c(CO)n2)c1 [US20230339882, Example A16] | 2.4 nM
CN(C)C(=O)c1cccc(OCC#Cc2cnc(N3CCC4(CC3)Cc3ccccc3[C@H]4N)c(CO)n2)c1 [US20230339882, Example A36] | 7.2 nM
COc1ccccc1OCC#Cc1cnc(N2CCC3(CC2)Cc2ccccc2[C@H]3N)c(CO)n1 [US20230339882, Example A10] | 3.7 nM
N[C@@H]1c2ccccc2CC12CCN(c1ncc(C#CCOc3ccc4ccc(=O)[nH]c4c3)nc1CO)CC2 [US20230339882, Example A24] | 2.4 nM
N[C@@H]1c2ccccc2CC12CCN(c1ncc(C#CCNc3ccc4c(c3)NC(=O)CC4)nc1CO)CC2 [US20230339882, Example A64] | 2.6 nM

Target: Potassium voltage-gated channel subfamily H member 2 (Homo sapiens, UniProt Q12809)
Sequence (Q12809 whole entry): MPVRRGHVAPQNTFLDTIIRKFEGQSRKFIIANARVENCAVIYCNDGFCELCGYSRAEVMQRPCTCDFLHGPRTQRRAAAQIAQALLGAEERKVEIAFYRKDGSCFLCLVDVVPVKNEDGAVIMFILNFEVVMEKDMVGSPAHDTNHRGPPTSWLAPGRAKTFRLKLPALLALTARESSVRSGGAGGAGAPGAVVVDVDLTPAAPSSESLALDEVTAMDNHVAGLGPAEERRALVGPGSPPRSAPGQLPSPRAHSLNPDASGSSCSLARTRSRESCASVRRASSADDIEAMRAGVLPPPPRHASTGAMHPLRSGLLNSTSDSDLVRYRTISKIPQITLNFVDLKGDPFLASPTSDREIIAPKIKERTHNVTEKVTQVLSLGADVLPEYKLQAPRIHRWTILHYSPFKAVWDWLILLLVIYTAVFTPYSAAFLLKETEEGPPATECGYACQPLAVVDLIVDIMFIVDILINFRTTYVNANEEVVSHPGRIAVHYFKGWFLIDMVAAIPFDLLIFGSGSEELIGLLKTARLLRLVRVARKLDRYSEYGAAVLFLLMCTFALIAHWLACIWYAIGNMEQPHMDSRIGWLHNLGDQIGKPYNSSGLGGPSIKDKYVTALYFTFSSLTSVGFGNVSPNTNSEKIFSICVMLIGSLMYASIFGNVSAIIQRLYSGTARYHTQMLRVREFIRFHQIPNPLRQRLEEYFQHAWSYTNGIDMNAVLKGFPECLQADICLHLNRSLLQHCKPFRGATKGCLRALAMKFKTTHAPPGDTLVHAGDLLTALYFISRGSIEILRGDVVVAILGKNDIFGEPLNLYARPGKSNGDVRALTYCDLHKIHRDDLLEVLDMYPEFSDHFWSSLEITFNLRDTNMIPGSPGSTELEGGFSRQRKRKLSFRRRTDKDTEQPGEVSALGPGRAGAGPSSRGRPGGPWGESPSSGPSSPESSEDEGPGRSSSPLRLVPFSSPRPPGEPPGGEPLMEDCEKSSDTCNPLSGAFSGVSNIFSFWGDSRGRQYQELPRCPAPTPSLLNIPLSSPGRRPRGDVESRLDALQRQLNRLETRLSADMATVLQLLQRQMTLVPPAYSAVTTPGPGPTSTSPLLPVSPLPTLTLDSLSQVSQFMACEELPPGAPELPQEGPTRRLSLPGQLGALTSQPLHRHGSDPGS
Assay: Electrophysiological Stimulation Protocol
Excerpt: Measure the peak tail current.

SMILES | IC50
CC(O)c1ccc(OCC#Cc2cnc(N3CCC4(CC3)Cc3ccccc3[C@H]4N)c(CO)n2)cc1 (stereo not given in full) [US20230339882, Example A71] | > 20000 nM
